From US20250333418A1, “PURINE COMPOUNDS, COMPOSITIONS COMPRISING THEM AND USES THEREOF” (Novo Nordisk A/S, priority 2022, published 2025)
pIC50: −log10 of the molar value.

Key:
[1] = biological target: T1, human CB1 receptor (Homo sapiens, UniProt P21554); test: bioSensAll GAPL-Gi2 BRET biosensor assay in HEK293 cells transfected with hCB1; test compound added before EC75-80 of agonist CP55,940 (0.1 nM); format: cell-based; conditions: vs CP55,940 0.1 nM (EC75-80), read-out: CB1 wt Gi2 IC50
T1 construct: expressed in transfected cells; host or cells: HEK293
T1 sequence (P21554 whole entry): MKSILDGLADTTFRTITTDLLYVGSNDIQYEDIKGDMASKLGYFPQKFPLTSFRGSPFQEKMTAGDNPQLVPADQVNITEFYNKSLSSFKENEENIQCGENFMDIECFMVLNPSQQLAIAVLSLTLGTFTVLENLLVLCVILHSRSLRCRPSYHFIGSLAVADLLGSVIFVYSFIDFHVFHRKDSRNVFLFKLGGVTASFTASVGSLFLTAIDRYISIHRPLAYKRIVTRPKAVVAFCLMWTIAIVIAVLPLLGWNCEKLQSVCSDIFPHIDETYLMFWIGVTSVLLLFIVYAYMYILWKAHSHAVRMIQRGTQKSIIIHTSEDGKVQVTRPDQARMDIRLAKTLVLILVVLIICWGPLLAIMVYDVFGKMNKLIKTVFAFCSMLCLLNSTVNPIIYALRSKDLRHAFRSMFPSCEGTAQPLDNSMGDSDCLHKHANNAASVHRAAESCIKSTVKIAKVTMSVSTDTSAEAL
Method: (§1) Using polyethylenimine (PEI) transfection agent, HEK293 cells were transfected in suspension with the human CB1 receptor and one of the following bioSensAll® assays: GAPL-Gi2, or β-arrestin plasma membrane (PM) translocation biosensor (+GRK2). Cells were directly seeded in 96-well plates immediately following transfection.
(§2) Cells were incubated with coelenterazine (luciferase substrate) and different test compounds prior to the measurement of BRET signals.
(§3) Used in this project are i) Gα plasma membrane (GAPL) biosensors and the ii) β-arrestin plasma membrane translocation biosensor.
i) GAPL sensors are used to monitor the activation of heterotrimeric G proteins at the plasma membrane upon receptor stimulation. Specifically, these multimolecular BRET sensors detect the plasma membrane recruitment of proteins that interact with active Gα subunits in a G protein family-selective manner. G protein activation following receptor stimulation generally leads to an increase in the BRET signal.
(§4) HEK293 cells were maintained in Dulbecco's Modified Eagle Medium (DMEM) (Wisent; cat #319-030-CL: without sodium pyruvate, with 4.5 g/L glucose, without L-glutamine) supplemented with 1% penicillin-streptomycin (Wisent; cat #450-201-EL) and 2 or 10% fetal bovine serum (Wisent cat #090150).
(§5) HEK293 cells were co-transfected with hCB1 and one of the above-listed bioSensAll® assays. For each transfection condition: • the total amount of transfected DNA was kept constant at 1 μg per mL of cell culture to be transfected; whenever necessary, salmon sperm DNA (Invitrogen, cat #15632011) was used as ‘carrier’ DNA to supplement plasmid DNA (i.e., biosensor and receptor); • the PEI (polyethylenimine 25 kDa linear, PolyScience, cat #23966) to DNA ratio (ug:ug) was fixed at 3:1.
(§6) Transfections were carried out as follows: • DNA and PEI were first diluted separately in 150 mM NaCl. The volume of the diluent in each tube corresponds to 5% of the cell culture volume to be transfected. • Once DNA and PEI were diluted, the PEI-containing solution was added to the DNA solution and the DNA/PEI mixture immediately vortexed for 5 seconds. • The DNA/PEI mixture was incubated for at least 20 minutes at room temperature to allow for the formation of DNA/PEI complexes. • During the incubation, HEK293 cells were detached, counted and re-suspended in culture medium (composition specified above). • At the end of the incubation period, the DNA/PEI mixture was added to the cells. • Cells were finally distributed in 96-well plates (White Opaque 96-well/Microplates, Greiner, cat #655083 or CulturPlate-96, White Opaque 96-well Microplate, PerkinElmer, cat #6005688) at a density of 30,000 cells per well.
(§7) At 48 hours post-transfection: • Using 450-Select TS Biotek plate washer, culture medium was aspirated and replaced with 100 μL of Hank's Balanced Salt Solution buffer (HBSS) (Wisent, cat #319-067CL: without red phenol; with sodium bicarbonate, with calcium and magnesium, with HEPES) per well. • Plates were then incubated (equilibrated) at 37° C., 5% CO2 for 60 minutes. • Increasing doses of test compounds were then added to each well using the HP D300e digital dispenser (Tecan). All compounds were assayed at the following 12 concentrations (in nM) with each biosensor: 0.000, 0.013, 0.040, 0.120, 0.320, 0.960, 2.80, 8.00, 24.0, 70.0, 205 and 600. • Three to 5 minutes later, an assay-specific effective concentration (EC)75-80 of agonist CP55,940 (i.e., 0.1 nM and 100 nM for G[…]i2-GAPL or […]Arrestin2 (+GRK2) assay, respectively) was added to wells previously injected with test compound (i.e., previous step 3). […]

[2] = biological target: T1, human CB1 receptor; test: bioSensAll β-arrestin2 plasma membrane translocation (+GRK2) BRET biosensor assay in HEK293 cells transfected with hCB1; test compound added before EC75-80 of agonist CP55,940 (100 nM); format: cell-based; conditions: βArrestin2 (+GRK2) BRET biosensor, vs CP55,940 100 nM (EC75-80), read-out: CB1 wt βarr2 IC50
Method: as §1, §2, §3
ii) The multimolecular β-arrestin membrane recruitment biosensors allow for real-time spatio-temporal monitoring of β-arrestin 1 and β-arrestin 2 following GPCR activation. Specifically, these β-arrestin sensors were designed to detect the recruitment of proteins to the plasma membrane (β-arrestin PM) with localization to compartment resulting in an increased BRET signal.
as §4, §5, §6, §7

SMILES	pIC50 [1]	pIC50 [2]
CN(CCO)c1nc(NC2CN(C(N)=O)C2)c2nc(-c3ccccc3Cl)n(-c3ccc(Cl)cc3)c2n1 [Compound 176]	7.81	< 5.30
CC1(C(N)=O)CCN(c2nc(N3CCC[C@H]3CO)nc3c2nc(-c2ccc(C#N)nc2)n3-c2ccc(Cl)cc2)CC1 [Compound 130, 1-[9-(4-chlorophenyl)-8-(6-cyano-3-pyridyl)-2-[(2S)-2-(hydroxymethyl)pyrrolidin-1-yl]purin-6-yl]-4-methyl-piperidine-4-carboxamide]	9.23	8.92
Cc1cnc(-c2nc3c(N4CCC(C)(C(N)=O)CC4)nc(N(C)CCO)nc3n2-c2ccc(Cl)cc2)n1C [Compound 115, 1-(9-(4-chlorophenyl)-8-(1,5-dimethyl-1H-imidazol-2-yl)-2-((2-hydroxyethyl)(methyl)amino)-9H-purin-6-yl)-4-methylpiperidine-4-carboxamide]	7.75	7.03
COCCN(C)c1nc(N2CCC(C)(C(N)=O)CC2)c2nc(-c3ccccc3Cl)n(-c3ccc(Cl)cc3)c2n1 [Compound 42, 1-[8-(2-chlorophenyl)-9-(4-chlorophenyl)-2-[2-methoxyethyl(methyl)amino]purin-6-yl]-4-methyl-piperidine-4-carboxamide]	9.16	8.62
CC(C)N1CCN(c2nc(OCC(C)(C)O)nc3c2nc(-c2ccccc2Cl)n3-c2ccc(Cl)cc2)CC1 [Compound 96]	8.46	8.25
CN(CC(C)(C)O)c1nc(N2CC(C(N)=O)C2)c2nc(-c3ccccc3Cl)n(-c3ccc(Cl)cc3)c2n1 [Compound 128]	8.02	7.40
CCOC1(C(N)=O)CN(c2nc(OCC(C)(C)O)nc3c2nc(-c2ccc(C#N)nc2)n3-c2ccc(Cl)cc2)C1 [Compound 139, 1-[9-(4-chlorophenyl)-8-(6-cyano-3-pyridyl)-2-(2-hydroxy-2-methyl-propoxy)purin-6-yl]-3-ethoxy-azetidine-3-carboxamide]	8.12	7.23
CCOC(=O)c1cn(-c2nc(N3CCC(C)(C(N)=O)CC3)c3nc(-c4ccccc4Cl)n(-c4ccc(Cl)cc4)c3n2)cn1 [Compound 69, ethyl 1-[6-(4-carbamoyl-4-methyl-1-piperidyl)-8-(2-chlorophenyl)-9-(4-chlorophenyl)purin-2-yl]imidazole-4-carboxylate]	7.38	6.93
CCNC1(C(N)=O)CCN(c2nc(C(N)=O)nc3c2nc(-c2ccccc2Cl)n3-c2ccc(Cl)cc2)CC1 [Compound 147, 6-(4-carbamoyl-4-(ethylamino)piperidin-1-yl)-8-(2-chlorophenyl)-9-(4-chlorophenyl)-9H-purine-2-carboxamide]	8.39	7.05
CCN1CCN(c2nc(OCC(C)(C)O)nc3c2nc(-c2ccccc2Cl)n3-c2ccc(Cl)cc2)CC1 [Compound 240]	8.24	7.91
CN(CCO)c1nc(N2CCC(C)(C(N)=O)CC2)c2nc(-c3ncccc3Cl)n(-c3ccc(Cl)cc3)c2n1 [Compound 49, 1-[9-(4-chlorophenyl)-8-(3-chloro-2-pyridyl)-2-[2-hydroxyethyl(methyl)amino]purin-6-yl]-4-methyl-piperidine-4-carboxamide]	8.59	7.71
COC1(C(N)=O)CCN(c2nc(OCC(C)(C)O)nc3c2nc(-c2ccccc2Cl)n3-c2ccc(Cl)cc2)CC1 [Compound 213]	8.73	8.11
CN(CCO)c1nc(NC2CCS(=O)(=O)CC2)c2nc(-c3ccccc3Cl)n(-c3ccc(Cl)cc3)c2n1 [Compound 167]	9.38	8.36
CC(O)COc1nc(N2CCC(C(F)(F)F)CC2)c2nc(-c3ccccc3Cl)n(-c3ccc(Cl)cc3)c2n1 (single isomer, unassigned) [Compound 25, 1-[8-(2-chlorophenyl)-9-(4-chlorophenyl)-6-[4-(trifluoromethyl)-1-piperidyl]purin-2-yl]oxypropan-2-ol]	9.15	8.69
CN(CCO)c1nc(OCC(C)(C)O)nc2c1nc(-c1ccccc1Cl)n2-c1ccc(Cl)cc1 [Compound 97]	7.59	6.91
CC(C)Oc1nc(OC[C@H](C)O)nc2c1nc(-c1ccccc1Cl)n2-c1ccc(Cl)cc1 [Compound 101]	8.82	7.80
CC(C)(O)COc1nc(N2CC(C(N)=O)C2)c2nc(-c3ccccc3Cl)n(-c3ccc(Cl)cc3)c2n1 [Compound 238]	7.86	
CN(CCO)c1nc(N2CC(C(N)=O)C2)c2nc(-c3ccccc3Cl)n(-c3ccc(Cl)cc3)c2n1 [Compound 72]	8.96	8.42
CN(CP(C)(C)=O)c1nc(N2CCC(C)(C(N)=O)CC2)c2nc(-c3ccccc3Cl)n(-c3ccc(Cl)cc3)c2n1 [Compound 71, 1-[8-(2-chlorophenyl)-9-(4-chlorophenyl)-2-[dimethylphosphorylmethyl(methyl)amino]purin-6-yl]-4-methyl-piperidine-4-carboxamide]	8.04	
OC[C@@H]1CN(c2nc(N3CCC[C@H]3CO)nc3c2nc(-c2ccccc2Cl)n3-c2ccc(Cl)cc2)CCO1 [Compound 169]	9.27	8.69
CC(=O)NC1(C)CN(c2nc(OCC(C)(C)OP(=O)(O)O)nc3c2nc(-c2ccccc2Cl)n3-c2ccc(Cl)cc2)C1 [Compound 239, 1-((6-(3-acetamido-3-methylazetidin-1-yl)-8-(2-chlorophenyl)-9-(4-chlorophenyl)-9H-purin-2-yl)oxy)-2-methylpropan-2-yl dihydrogen phosphate]	7.56	
CC(C)(O)COc1nc(NCCO)c2nc(-c3ccccc3Cl)n(-c3ccc(Cl)cc3)c2n1 [Compound 98]		< 5.30
NC(=O)N1CC(Nc2nc(N3CCC[C@H]3CO)nc3c2nc(-c2ccccc2Cl)n3-c2ccc(Cl)cc2)C1 [Compound 175]	8.28	
CN(CC(C)(C)O)c1nc(N2CC(C(N)=O)C2)c2nc(-c3ccc(C#N)nc3)n(-c3ccc(Cl)cc3)c2n1 [Compound 129]	6.36	
Cc1nc(C#N)ccc1-c1nc2c(N3CCC(C)(C(N)=O)CC3)nc(OCC(C)(C)O)nc2n1-c1ccc(Cl)cc1 [Compound 107, 1-[9-(4-chlorophenyl)-8-(6-cyano-2-methyl-3-pyridyl)-2-(2-hydroxy-2-methyl-propoxy)purin-6-yl]-4-methyl-piperidine-4-carboxamide]	7.56	
Cc1cnccc1-c1nc2c(N3CCC(C)(C(N)=O)CC3)nc(OCC(C)(C)O)nc2n1-c1ccc(Cl)cc1 [Compound 122, 1-[9-(4-chlorophenyl)-2-(2-hydroxy-2-methyl-propoxy)-8-(3-methyl-4-pyridyl)purin-6-yl]-4-methyl-piperidine-4-carboxamide]	7.84	
CCOC1(C(=O)O)CCN(c2nc(OCC(C)(C)O)nc3c2nc(-c2ccccc2Cl)n3-c2ccc(Cl)cc2)CC1 [Compound 218]	8.11	
CC(C)(O)COc1nc(N2CCNCC2)c2nc(-c3ccccc3Cl)n(-c3ccc(Cl)cc3)c2n1 [Compound 219]	7.22	
CC(C)(O)COc1nc(N2CCC(C)(C(=O)O)CC2)c2nc(-c3ccc(C#N)nc3)n(-c3ccc(Cl)cc3)c2n1 [Compound 118, 1-[9-(4-chlorophenyl)-8-(6-cyano-3-pyridyl)-2-(2-hydroxy-2-methyl-propoxy)purin-6-yl]-4-methyl-piperidine-4-carboxylic acid]		< 5.30
